Results on four compounds are retold here after US9186342B2, “Combination of an NSAID and an amino acid” (LABORATORIOS SENOSIAIN S.A. DE C.V., priority 2010, dated 2015).

The conditions of series [1]: cited from earlier work.
The subject of series [2] is pyresis induced by LPS from E. coli in rats. Kind of series: Anti-pyretic effect, pyresis model induced by LPS from E. coli. The format is in vivo, rat. Particulars: 15 mg/Kg, from the first 60 minutes. As to the method: After the assessment of the anti-nociceptive and anti-inflammatory effects, the anti-pyretic effect was assessed for increasing doses of the combination IBU:L-ARG in a ratio IBU/L-ARG=3.26, in comparison with the administration of an agent that is well known as capable of control fever, such as acetaminophen (15 mg/Kg) (see FIG. 5).

Series [3] deals with inflammation induced with carrageenan in rats. Kind of series: Anti-inflammatory effect, inflammation model by carrageenan. The format is in vivo, rat. Conditions: 10 mg/Kg, each 8 hours, from the third hour. The method, then: From the results of the previous study, and following a model where inflammation is induced with carrageenan administration for generating a bruise, we determined the anti-inflammatory effect of the L-ARG-IBU combination, in comparison with the administration of a treatment of known effects (positive control: diclofenac 10 mg/Kg), and of a control group, administered each 8 hours for a period of 48 hours. This model presented a maximum inflammation level of towards 6-8 hours, after which inflammation starts to decrease gradually.

For series [4] the following is noted: in vivo; cited from earlier work.

As for `CC(C)Cc1ccc(C(C)C(=O)O)cc1` (stereo not shown) [Ibuprofen], in series [1], the solubility in water entry was “relatively insoluble in water”.

Turning to `CC(=O)Nc1ccc(O)cc1` [acetaminophen], the “temperature after drug administration” value in series [2] was “temperature returned to basal levels”.

As for `O=C(O)Cc1ccccc1Nc1c(Cl)cccc1Cl` [diclofenac], the development of edema result in series [3] is “reduced the development of edema”.

Take ibuprofen arginate: the “onset of the analgesic action compared to ibuprofen alone” value in series [4] is reported as “fast onset of the analgesic action”.
